# Assay results as given in patent US6362369B1, “Phthalic acid diamide derivatives fluorine-containing aniline compounds as starting material, agricultural and horticultural insecticides, and a method for application of the insecticides” (Nihon Nohyaku Co., Ltd., priority 1997, dated 2002).
# Columns and labels:
# Type in all cases: in vivo
# [1] = test system: common cutworm (Spodoptera Litura); experiment: Insecticidal effect on common cutworm (Test Example 2); conditions: 500 ppm, 25° C.; for Insecticidal effect, Test Example 2: cabbage leaf immersed; for Insecticidal effect, Test Example 2 / Insecticidal effect on common cutworm (Test Example 2), judged grade: eight days after inoculation; for Insecticidal effect (Test Example 2), judged from mortality / Insecticidal effect on common cutworm (Test Example 2), judged grade: cabbage leaf dip; for Insecticidal effect (Test Example 2), judged from mortality: 8 days after inoculation; for Insecticidal effect on common cutworm (Test Example 2), judged grade: second-instar larvae
# Method in brief: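 Air-dried treated material was placed in a closed dish with second-instar larvae and held at 25° C. Dead and live insects were counted eight days after inoculation, and mortality was calculated and scored against a fixed insecticidal-effect criterion. Three replicate groups of 10 insects were used.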
# [2] = test system: diamondback moth (Plutella xylostella); experiment: Insecticidal effect on diamondback moth (Test Example 1); conditions: for Insecticidal effect, Test Example 1 / Insecticidal effect (Test Example 1), judged from mortality: diamondback moth; for Insecticidal effect (Test Example 1), judged from mortality: judged by the criterion of Test Example 1; for Insecticidal effect on diamondback moth (Test Example 1), judged grade: mortality judged according to the criterion shown in Test Example 1
# Method in brief: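 Read-out was mortality from hatched-insect counts taken 6 days after the egg-bearing cabbage seedling was immersed, graded by set criteria. Seedlings were air-dried and kept at 25° C after treatment. Groups of 10 insects, in triplicate.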
# [3] = test system: rice leafroller (Cnaphalocrocis medinalis); experiment: Insecticidal effect on rice leafroller (Test Example 3); conditions: 500 ppm, 25° C., humidity 70%; for Insecticidal effect, Test Example 3: rice lamina immersed; for Insecticidal effect, Test Example 3 / Insecticidal effect on rice leafroller (Test Example 3), judged grade: four days after inoculation; for Insecticidal effect (Test Example 3), judged from mortality / Insecticidal effect on rice leafroller (Test Example 3), judged grade: rice lamina dip; for Insecticidal effect (Test Example 3), judged from mortality: 4 days after inoculation; for Insecticidal effect on rice leafroller (Test Example 3), judged grade: third-instar larvae
# Method in brief: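 Groups of 10 third-instar larvae, in triplicate, are placed on air-dried lamina resting on wet filter paper. Incubation runs four days at 25° C with 70% humidity before survivors and dead are tallied.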
# [4] = second-instar larvae of common cutworm
# [5] = judged by the mortality criterion of Test Example 1
# [6] = third-instar larvae of rice leafroller
# [7] = common cutworm second-instar larvae
# [8] = mortality judged by criterion of Test Example 1
# [9] = rice leafroller third-instar larvae
smiles,measurement,setting,value
CC(C)NC(=O)c1c(Cl)cccc1C(=O)Nc1ccc(Cl)cc1F [compound 115],"Insecticidal effect, Test Example 2",[1]; [4],C (89-80)
same,"Insecticidal effect, Test Example 1",[2]; [5],A (100)
same,"Insecticidal effect, Test Example 3",[3]; [6],A (100)
CC(C)NC(=O)c1c(I)cccc1C(=O)Nc1ccc(Cl)cc1 [compound 345],"Insecticidal effect, Test Example 2",[1]; [4],B (99-90)
same,"Insecticidal effect, Test Example 1",[2]; [5],A (100)
same,"Insecticidal effect, Test Example 3",[3]; [6],A (100)
Cc1cc(C(F)(F)C(F)(F)F)ccc1NC(=O)c1cccc(I)c1C(=O)NC(C)(C)CO [compound 1464],"Insecticidal effect (Test Example 2), judged from mortality",[1]; [4],A (100)
same,"Insecticidal effect (Test Example 1), judged from mortality",[2],A (100)
same,"Insecticidal effect (Test Example 3), judged from mortality",[3]; [6],A (100)
Cc1cc(OC(F)(F)C(F)(F)Br)ccc1NC(=O)c1c(Cl)cccc1C(=O)NC(C)C [compound 229],"Insecticidal effect, Test Example 2",[1]; [4],D (79-50)
same,"Insecticidal effect, Test Example 1",[2]; [5],A (100)
same,"Insecticidal effect, Test Example 3",[3]; [6],A (100)
COc1cccc(NC(=O)c2cccc([N+](=O)[O-])c2C(=O)NC(C)C)c1C [compound 687],"Insecticidal effect on common cutworm (Test Example 2), judged grade",[1],D (79-50)
same,"Insecticidal effect on diamondback moth (Test Example 1), judged grade",[2],A (100)
same,"Insecticidal effect on rice leafroller (Test Example 3), judged grade",[3],D (79-50)
CC(C)NC(=O)c1c(I)cccc1C(=O)Nc1ccc(OC(F)(F)C(F)OC(F)(F)F)cc1 (stereo not drawn) [compound 353],"Insecticidal effect, Test Example 2",[1]; [4],A (100)
same,"Insecticidal effect, Test Example 1",[2]; [5],A (100)
same,"Insecticidal effect, Test Example 3",[3]; [6],A (100)
CCCN(CC)C(=O)c1c(I)cccc1C(=O)Nc1ccc(C(F)(F)C(F)(F)F)cc1C [compound 1573],"Insecticidal effect (Test Example 2), judged from mortality",[1]; [4],A (100)
same,"Insecticidal effect (Test Example 1), judged from mortality",[2],A (100)
same,"Insecticidal effect (Test Example 3), judged from mortality",[3]; [6],A (100)
Cc1cc(C(F)(F)C(F)(F)F)ccc1NC(=O)c1cccc(I)c1C(=O)N1CCCCCC1 [compound 1117],"Insecticidal effect, Test Example 2",[1]; [7],A (100)
same,"Insecticidal effect, Test Example 1",[2]; [8],A (100)
same,"Insecticidal effect, Test Example 3",[3]; [9],A (100)
Cc1cc(C(F)(F)C(F)(F)F)ccc1NC(=O)c1cccc(I)c1C(=O)N(C)C [compound 1068],"Insecticidal effect, Test Example 2",[1]; [7],A (100)
same,"Insecticidal effect, Test Example 1",[2]; [8],A (100)
same,"Insecticidal effect, Test Example 3",[3]; [9],A (100)
CCCNC(=O)c1cccc(Cl)c1C(=O)Nc1cc(-c2ccccc2)ccc1OC [compound 1297],"Insecticidal effect, Test Example 2",[1]; [7],A (100)
same,"Insecticidal effect, Test Example 1",[2]; [8],A (100)
same,"Insecticidal effect, Test Example 3",[3]; [9],A (100)
Cc1cc(OC(F)(F)F)ccc1NC(=O)c1cccc(Cl)c1C(=O)NC(C)C [compound 139],"Insecticidal effect, Test Example 2",[1]; [4],A (100)
same,"Insecticidal effect, Test Example 1",[2]; [5],A (100)
same,"Insecticidal effect, Test Example 3",[3]; [6],A (100)
Cc1cc(OC(F)(F)C(F)(Cl)Cl)ccc1NC(=O)c1cccc([N+](=O)[O-])c1C(=O)NC(C)C [compound 715],"Insecticidal effect on common cutworm (Test Example 2), judged grade",[1],A (100)
same,"Insecticidal effect on diamondback moth (Test Example 1), judged grade",[2],A (100)
same,"Insecticidal effect on rice leafroller (Test Example 3), judged grade",[3],A (100)
Cc1cc(C(F)(F)C(F)(F)F)ccc1NC(=O)c1cccc(I)c1C(=O)N[C@H](C)CO [compound 1481],"Insecticidal effect (Test Example 2), judged from mortality",[1]; [4],A (100)
same,"Insecticidal effect (Test Example 1), judged from mortality",[2],A (100)
same,"Insecticidal effect (Test Example 3), judged from mortality",[3]; [6],A (100)
CCNC(=O)c1c(Cl)cccc1C(=O)Nc1ccc(C(F)(F)C(F)(F)F)cc1Cl [compound 1489],"Insecticidal effect (Test Example 2), judged from mortality",[1]; [4],A (100)
same,"Insecticidal effect (Test Example 1), judged from mortality",[2],A (100)
same,"Insecticidal effect (Test Example 3), judged from mortality",[3]; [6],A (100)
CC(C)NC(=O)c1c(C(=O)Nc2ccc(I)cc2)cccc1[N+](=O)[O-] [compound 595],"Insecticidal effect on common cutworm (Test Example 2), judged grade",[1],A (100)
same,"Insecticidal effect on diamondback moth (Test Example 1), judged grade",[2],A (100)
same,"Insecticidal effect on rice leafroller (Test Example 3), judged grade",[3],A (100)
COc1ccc(NC(=O)c2cccc(Br)c2C(=O)NC(C)C)c(C)c1 [compound 282],"Insecticidal effect, Test Example 2",[1]; [4],A (100)
same,"Insecticidal effect, Test Example 1",[2]; [5],A (100)
same,"Insecticidal effect, Test Example 3",[3]; [6],A (100)
CCC(C)NC(=O)c1c(C(=O)Nc2cc(Cl)ccc2C)cccc1[N+](=O)[O-] (stereo not drawn) [compound 838],"Insecticidal effect on common cutworm (Test Example 2), judged grade",[1],C (89-80)
same,"Insecticidal effect on diamondback moth (Test Example 1), judged grade",[2],A (100)
same,"Insecticidal effect on rice leafroller (Test Example 3), judged grade",[3],A (100)
Cc1cc(Oc2cccc(C(F)(F)F)c2)ccc1NC(=O)c1c(Br)cccc1C(=O)NC(C)C [compound 334],"Insecticidal effect, Test Example 2",[1]; [4],C (89-80)
same,"Insecticidal effect, Test Example 1",[2]; [5],A (100)
same,"Insecticidal effect, Test Example 3",[3]; [6],C (89-80)
CCc1cc(Cl)ccc1NC(=O)c1cccc(Br)c1C(=O)NC(C)C [compound 271],"Insecticidal effect, Test Example 2",[1]; [4],A (100)
same,"Insecticidal effect, Test Example 1",[2]; [5],A (100)
same,"Insecticidal effect, Test Example 3",[3]; [6],A (100)
Cc1cc(C(F)(F)C(F)(F)F)ccc1NC(=O)c1cccc(Cl)c1C(=O)NCc1ccccc1Cl [compound 1309],"Insecticidal effect, Test Example 2",[1]; [7],A (100)
same,"Insecticidal effect, Test Example 1",[2]; [8],A (100)
same,"Insecticidal effect, Test Example 3",[3]; [9],A (100)
Cc1cc(C(F)(F)C(F)(F)F)ccc1NC(=O)c1cccc(Cl)c1C(=O)NC(C)(C)C#Cc1ccccn1 [compound 1587],"Insecticidal effect (Test Example 2), judged from mortality",[1]; [4],A (100)
same,"Insecticidal effect (Test Example 1), judged from mortality",[2],A (100)
same,"Insecticidal effect (Test Example 3), judged from mortality",[3]; [6],A (100)
Cc1cc(OC(F)(F)C(F)C(F)(F)F)ccc1NC(=O)c1cccc(Br)c1C(=O)NC(C)C (stereo not drawn) [compound 291],"Insecticidal effect, Test Example 2",[1]; [4],A (100)
same,"Insecticidal effect, Test Example 1",[2]; [5],A (100)
same,"Insecticidal effect, Test Example 3",[3]; [6],A (100)
Cc1cc(Oc2ncc(C(F)(F)F)cc2Cl)ccc1NC(=O)c1cccc(I)c1C(=O)NC(C)C [compound 400],"Insecticidal effect, Test Example 2",[1]; [4],D (79-50)
same,"Insecticidal effect, Test Example 1",[2]; [5],A (100)
same,"Insecticidal effect, Test Example 3",[3]; [6],A (100)
CCc1cc(C(F)(F)C(F)(F)F)ccc1NC(=O)c1cccc(I)c1C(=O)NC(C)(C)C [compound 1475],"Insecticidal effect (Test Example 2), judged from mortality",[1]; [4],A (100)
same,"Insecticidal effect (Test Example 1), judged from mortality",[2],A (100)
same,"Insecticidal effect (Test Example 3), judged from mortality",[3]; [6],A (100)
Cc1cc(OC(F)F)ccc1NC(=O)c1ccc(I)cc1C(=O)NC(C)C [compound 1204],"Insecticidal effect, Test Example 2",[1]; [7],A (100)
same,"Insecticidal effect, Test Example 1",[2]; [8],A (100)
same,"Insecticidal effect, Test Example 3",[3]; [9],A (100)
Cc1cc(OC(F)(F)C(F)(Br)C(F)(F)F)ccc1NC(=O)c1c(Cl)cccc1C(=O)NC(C)C (stereo not drawn) [compound 243],"Insecticidal effect, Test Example 2",[1]; [4],A (100)
same,"Insecticidal effect, Test Example 1",[2]; [5],A (100)
same,"Insecticidal effect, Test Example 3",[3]; [6],B (99-90)
CCC(C)(C)NC(=O)c1c(I)cccc1C(=O)Nc1ccc(C(F)(F)C(F)(F)F)cc1C [compound 1565],"Insecticidal effect (Test Example 2), judged from mortality",[1]; [4],A (100)
same,"Insecticidal effect (Test Example 1), judged from mortality",[2],A (100)
same,"Insecticidal effect (Test Example 3), judged from mortality",[3]; [6],A (100)
CC(C)NC(=O)c1c(I)cccc1C(=O)Nc1ccc2c(c1Cl)OC(F)C(F)(F)O2 (racemic) [compound 1680],"Insecticidal effect (Test Example 2), judged from mortality",[1]; [4],A (100)
same,"Insecticidal effect (Test Example 1), judged from mortality",[2],A (100)
same,"Insecticidal effect (Test Example 3), judged from mortality",[3]; [6],A (100)
CC(C)NC(=O)c1c(Cl)cccc1C(=O)Nc1ccc2c(c1)OC(F)(F)O2 [compound 1101],"Insecticidal effect, Test Example 2",[1]; [7],C (89-80)
same,"Insecticidal effect, Test Example 1",[2]; [8],A (100)
same,"Insecticidal effect, Test Example 3",[3]; [9],A (100)
Cc1cc(OC(F)(F)F)ccc1NC(=O)c1ccccc1C(=O)NC(C)(C)C [compound 930],"Insecticidal effect on common cutworm (Test Example 2), judged grade",[1],A (100)
same,"Insecticidal effect on diamondback moth (Test Example 1), judged grade",[2],A (100)
same,"Insecticidal effect on rice leafroller (Test Example 3), judged grade",[3],A (100)
Cc1cc(C(F)(F)C(F)(F)F)cc(C)c1NC(=O)c1cccc(I)c1C(=O)NC(C)C [compound 1717],"Insecticidal effect (Test Example 2), judged from mortality",[1]; [4],A (100)
same,"Insecticidal effect (Test Example 1), judged from mortality",[2],A (100)
same,"Insecticidal effect (Test Example 3), judged from mortality",[3]; [6],A (100)
Cc1cc(OC(F)(F)F)ccc1NC(=O)c1cccc([N+](=O)[O-])c1C(=O)NC(C)C [compound 710],"Insecticidal effect on common cutworm (Test Example 2), judged grade",[1],C (89-80)
same,"Insecticidal effect on diamondback moth (Test Example 1), judged grade",[2],A (100)
same,"Insecticidal effect on rice leafroller (Test Example 3), judged grade",[3],A (100)
CC(C)NC(=O)c1ccccc1C(=O)Nc1ccc(OC(F)(F)F)cc1Cl [compound 47],"Insecticidal effect, Test Example 2",[1]; [4],D (79-50)
same,"Insecticidal effect, Test Example 1",[2]; [5],A (100)
same,"Insecticidal effect, Test Example 3",[3]; [6],A (100)
CC(C)NC(=O)c1c(Cl)cccc1C(=O)Nc1ccc(SC(F)(F)Br)cc1 [compound 1110],"Insecticidal effect, Test Example 2",[1]; [7],C (89-80)
same,"Insecticidal effect, Test Example 1",[2]; [8],A (100)
same,"Insecticidal effect, Test Example 3",[3]; [9],A (100)
CC(C)NC(=O)c1c(Cl)cccc1C(=O)Nc1cccc(Cl)c1Cl [compound 111],"Insecticidal effect, Test Example 2",[1]; [4],C (89-80)
same,"Insecticidal effect, Test Example 1",[2]; [5],A (100)
same,"Insecticidal effect, Test Example 3",[3]; [6],B (99-90)
Cc1cc(Cl)ccc1NC(=O)c1cccc(Br)c1C(=O)NC(C)C [compound 267],"Insecticidal effect, Test Example 2",[1]; [4],A (100)
same,"Insecticidal effect, Test Example 1",[2]; [5],A (100)
same,"Insecticidal effect, Test Example 3",[3]; [6],A (100)
